Measured values: ChEMBL document CHEMBL1158280, “Specific inhibition of human immunodeficiency virus type 1 reverse transcriptase mediated by soulattrolide, a coumarin isolated from the latex of calophyllum teysmannii” (J Nat Prod, 1996)
pIC50: −log10 of the molar value. The source made the active and inactive calls. No cut-off for these calls is given here.

How the values were obtained:
[1] = molecular target: T1, DNA polymerase beta (Homo sapiens, UniProt P06746); test: Inhibition of DNA polymerase beta
[2] = molecular target: T2, Human immunodeficiency virus type 1 reverse transcriptase (Human immunodeficiency virus 1, UniProt Q72547); test: Inhibition of DNA dependent DNA polymerase activity of HIV1 recombinant reverse transcriptase p66/p51
[3] = molecular target: T2, Human immunodeficiency virus type 1 reverse transcriptase; test: Inhibition of RNA dependent DNA polymerase activity of HIV1 recombinant reverse transcriptase p66/p51
[4] = test system: Human immunodeficiency virus 2; test: Inhibition of HIV2 reverse transcriptase p68/p54 expressed in Escherichia coli at 495 uM
[5] = Inhibition of RNA polymerase
[6] = Inhibition of RNA polymerase at 495 uM
[7] = molecular target: T1, DNA polymerase beta; test: Inhibition of DNA polymerase beta at 495 uM
[8] = molecular target: T3, DNA polymerase alpha catalytic subunit (Homo sapiens) (UniProt P09884); test: Inhibition of DNA polymerase alpha at 495 uM
T3 sequence (whole entry): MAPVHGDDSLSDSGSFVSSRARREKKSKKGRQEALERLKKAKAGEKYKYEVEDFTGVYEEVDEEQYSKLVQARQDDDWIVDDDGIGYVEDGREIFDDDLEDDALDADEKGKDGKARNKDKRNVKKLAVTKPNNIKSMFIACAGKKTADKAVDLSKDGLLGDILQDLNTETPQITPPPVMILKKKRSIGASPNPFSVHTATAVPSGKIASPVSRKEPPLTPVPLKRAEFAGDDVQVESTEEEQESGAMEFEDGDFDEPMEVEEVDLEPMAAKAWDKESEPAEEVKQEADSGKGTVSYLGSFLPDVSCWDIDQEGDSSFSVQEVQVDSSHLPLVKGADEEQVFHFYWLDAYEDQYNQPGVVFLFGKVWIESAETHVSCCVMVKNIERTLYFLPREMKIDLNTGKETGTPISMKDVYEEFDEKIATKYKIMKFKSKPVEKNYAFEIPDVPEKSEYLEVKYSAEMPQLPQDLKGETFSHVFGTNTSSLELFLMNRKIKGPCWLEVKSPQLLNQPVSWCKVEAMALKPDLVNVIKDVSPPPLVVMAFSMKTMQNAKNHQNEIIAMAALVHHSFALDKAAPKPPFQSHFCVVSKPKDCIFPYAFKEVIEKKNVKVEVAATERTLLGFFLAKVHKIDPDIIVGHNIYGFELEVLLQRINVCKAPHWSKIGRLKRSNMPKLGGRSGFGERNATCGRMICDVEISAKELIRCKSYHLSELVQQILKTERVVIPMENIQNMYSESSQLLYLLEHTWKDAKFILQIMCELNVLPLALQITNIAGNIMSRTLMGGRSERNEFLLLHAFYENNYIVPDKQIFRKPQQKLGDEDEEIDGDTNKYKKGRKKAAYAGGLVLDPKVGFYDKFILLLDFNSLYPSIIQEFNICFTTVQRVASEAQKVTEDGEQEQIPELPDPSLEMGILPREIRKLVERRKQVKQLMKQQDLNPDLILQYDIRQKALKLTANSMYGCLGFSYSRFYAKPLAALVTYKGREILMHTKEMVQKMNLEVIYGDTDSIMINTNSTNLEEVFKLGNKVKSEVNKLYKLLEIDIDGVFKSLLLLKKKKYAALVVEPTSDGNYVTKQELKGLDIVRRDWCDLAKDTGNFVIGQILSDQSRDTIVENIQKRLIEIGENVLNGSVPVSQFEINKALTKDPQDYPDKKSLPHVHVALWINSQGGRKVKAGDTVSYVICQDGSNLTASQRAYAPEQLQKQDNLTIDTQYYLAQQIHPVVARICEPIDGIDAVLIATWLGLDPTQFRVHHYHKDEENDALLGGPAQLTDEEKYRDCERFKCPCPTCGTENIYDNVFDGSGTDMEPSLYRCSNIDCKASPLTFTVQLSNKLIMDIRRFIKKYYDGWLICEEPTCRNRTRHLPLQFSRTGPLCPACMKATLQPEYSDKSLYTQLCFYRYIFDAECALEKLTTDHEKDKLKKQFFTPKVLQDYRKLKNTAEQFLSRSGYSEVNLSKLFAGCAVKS

[9] = molecular target: T3, DNA polymerase alpha catalytic subunit (Homo sapiens); test: (§1) Inhibition of DNA polymerase alpha
[10] = test system: Escherichia coli; test: Inhibition of Escherichia coli RNase H at 495 uM
[11] = test system: Avian myeloblastosis virus; test: Inhibition of Avian myeloblastosis virus reverse transcriptase
[12] = test system: Human immunodeficiency virus 1; test: Inhibition of TIBO-resistant HIV1 reverse transcriptase p66/p51 Tyr181 mutant expressed in Escherichia coli at 495 uM
[13] = test system: Human immunodeficiency virus 2; test: Inhibition of HIV2 reverse transcriptase p68/p54 expressed in Escherichia coli
[14] = molecular target: Human immunodeficiency virus type 1 reverse transcriptase (Human immunodeficiency virus 1) (UniProt Q72547); test: Inhibition of RNA dependent DNA polymerase activity of HIV1 recombinant reverse transcriptase p66/p51 at 495 uM
[15] = molecular target: Human immunodeficiency virus type 1 reverse transcriptase (Human immunodeficiency virus 1) (UniProt Q72547); test: Inhibition of DNA dependent DNA polymerase activity of HIV1 recombinant reverse transcriptase p66/p51 at 495 uM
[16] = test system: Avian myeloblastosis virus; test: Inhibition of Avian myeloblastosis virus reverse transcriptase at 495 uM
[17] = test system: Human immunodeficiency virus 1; test: Inhibition of TIBO-resistant HIV1 reverse transcriptase p66/p51 Tyr181 mutant expressed in Escherichia coli
[18] = Inhibition of Escherichia coli RNase H
[19] = molecular target: T4, DNA polymerase alpha catalytic subunit (Homo sapiens, UniProt P09884); test: as §1
T4 sequence (P09884 whole entry): T3 sequence (whole entry)

## CCCc1cc(=O)oc2c3c(c4c(c12)OC(C)(C)C=C4)O[C@H](C)[C@@H](C)[C@@H]3O [CALANOLIDE A]
[1]
  pIC50: 3.69
[2]
  pIC50: 6.49

## CCCc1cc(=O)oc2c3c(c4c(c12)OC(C)(C)C=C4)O[C@@H](C)[C@H](C)[C@@H]3O [COSTATOLIDE]
[3]
  pIC50: 5.85
[2]
  pIC50: 6.54

## C[C@H]1[C@H](C)Oc2c3c(c4c(-c5ccccc5)cc(=O)oc4c2[C@H]1O)OC(C)(C)C=C3 [SOULATTROLIDE]
[4]
  inhibition: 0.7%
[5]
  Activity: inactive
[6]
  inhibition: 29.7%
[7]
  inhibition: 49.6%
[8]
  inhibition: 28.1%
[9]
  Activity: inactive
[10]
  inhibition: 86.5%
[11]
  Activity: inactive
[12]
  inhibition: 31.5%
[1]
  pIC50: < 3.31
[13]
  Activity: inactive
[14]
  inhibition: 96.2%
[15]
  inhibition: 87.2%
[16]
  inhibition: 20.2%
[17]
  Activity: inactive
[3]
  pIC50: 6.14
[18]
  pIC50: 4.16
[2]
  pIC50: 6.47

## Cc1cn([C@H]2C[C@H](N=[N+]=[N-])[C@@H](CO[P@](=O)(O)O[P@](=O)(O)OP(=O)(O)O)O2)c(=O)[nH]c1=O [ZIDOVUDINE TRIPHOSPHATE]
[19]
  pIC50: 4.96
[1]
  pIC50: 4.80
[2]
  pIC50: 7.29
